Drawing on ChEMBL document CHEMBL1909046, “DrugMatrix in vitro pharmacology data”, this text covers IC50 and Ki for 19 molecules.

Series [1] has as its target T1, Type-2 angiotensin II receptor (Homo sapiens, UniProt P50052).
T1 sequence (P50052 whole entry): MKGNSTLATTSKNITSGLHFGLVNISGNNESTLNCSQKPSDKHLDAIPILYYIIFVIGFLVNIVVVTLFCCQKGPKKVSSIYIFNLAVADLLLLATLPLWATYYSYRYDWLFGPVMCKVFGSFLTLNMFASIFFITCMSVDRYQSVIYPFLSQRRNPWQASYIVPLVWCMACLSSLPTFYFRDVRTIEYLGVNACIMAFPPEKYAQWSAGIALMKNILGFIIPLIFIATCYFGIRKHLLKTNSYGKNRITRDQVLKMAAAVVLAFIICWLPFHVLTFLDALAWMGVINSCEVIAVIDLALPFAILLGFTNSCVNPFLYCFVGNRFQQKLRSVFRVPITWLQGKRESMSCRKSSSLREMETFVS
Briefly: biochemical. It counts as cell-based, CHO-K1.

The target in another series is T2, Adenosine receptor A1 (Homo sapiens, UniProt P30542).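 Further: radioligand binding assay at the adenosine A1 receptor, with DPCPX serving as the labelled ligand.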
T2 sequence (P30542 whole entry): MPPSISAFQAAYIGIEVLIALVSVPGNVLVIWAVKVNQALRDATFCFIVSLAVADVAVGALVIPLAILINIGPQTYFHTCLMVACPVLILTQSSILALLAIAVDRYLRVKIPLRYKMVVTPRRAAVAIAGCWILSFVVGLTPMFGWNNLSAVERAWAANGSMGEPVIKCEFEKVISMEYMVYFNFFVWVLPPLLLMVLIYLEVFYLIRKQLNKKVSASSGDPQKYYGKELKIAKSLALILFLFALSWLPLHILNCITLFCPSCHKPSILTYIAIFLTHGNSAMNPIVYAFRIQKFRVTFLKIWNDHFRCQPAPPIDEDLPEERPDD
The format is cell membranes, CHO, Membrane.

Series [2] deals with T3, C-X-C chemokine receptor type 1 (Homo sapiens, UniProt P25024).
T3 sequence (P25024 whole entry): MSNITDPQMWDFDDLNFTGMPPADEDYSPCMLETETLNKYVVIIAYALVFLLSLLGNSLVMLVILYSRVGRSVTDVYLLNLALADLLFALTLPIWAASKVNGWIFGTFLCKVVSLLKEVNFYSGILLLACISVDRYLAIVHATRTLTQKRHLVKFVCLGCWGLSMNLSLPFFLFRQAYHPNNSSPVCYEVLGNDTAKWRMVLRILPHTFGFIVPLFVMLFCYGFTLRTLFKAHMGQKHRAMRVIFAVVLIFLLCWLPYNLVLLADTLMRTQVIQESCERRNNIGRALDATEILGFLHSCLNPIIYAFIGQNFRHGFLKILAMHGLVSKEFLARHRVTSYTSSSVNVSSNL

The target of the next series is T4, Substance-K receptor (Homo sapiens, UniProt P21452).
T4 sequence (P21452 whole entry): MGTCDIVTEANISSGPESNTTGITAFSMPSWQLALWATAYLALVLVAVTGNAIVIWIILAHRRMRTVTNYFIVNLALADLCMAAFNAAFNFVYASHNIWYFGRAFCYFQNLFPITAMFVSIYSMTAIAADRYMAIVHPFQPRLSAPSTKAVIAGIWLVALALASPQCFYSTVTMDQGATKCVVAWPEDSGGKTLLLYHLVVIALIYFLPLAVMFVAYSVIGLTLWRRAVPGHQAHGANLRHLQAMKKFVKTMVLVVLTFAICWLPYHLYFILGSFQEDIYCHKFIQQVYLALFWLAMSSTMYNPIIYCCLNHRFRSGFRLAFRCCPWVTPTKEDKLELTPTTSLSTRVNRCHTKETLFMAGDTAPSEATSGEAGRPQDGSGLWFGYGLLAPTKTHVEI
It counts as cell membranes, CHO, Membrane.

Another series concerns the target T5, Cytochrome P450 2A6 (Homo sapiens, UniProt P11509).
T5 sequence (P11509 whole entry): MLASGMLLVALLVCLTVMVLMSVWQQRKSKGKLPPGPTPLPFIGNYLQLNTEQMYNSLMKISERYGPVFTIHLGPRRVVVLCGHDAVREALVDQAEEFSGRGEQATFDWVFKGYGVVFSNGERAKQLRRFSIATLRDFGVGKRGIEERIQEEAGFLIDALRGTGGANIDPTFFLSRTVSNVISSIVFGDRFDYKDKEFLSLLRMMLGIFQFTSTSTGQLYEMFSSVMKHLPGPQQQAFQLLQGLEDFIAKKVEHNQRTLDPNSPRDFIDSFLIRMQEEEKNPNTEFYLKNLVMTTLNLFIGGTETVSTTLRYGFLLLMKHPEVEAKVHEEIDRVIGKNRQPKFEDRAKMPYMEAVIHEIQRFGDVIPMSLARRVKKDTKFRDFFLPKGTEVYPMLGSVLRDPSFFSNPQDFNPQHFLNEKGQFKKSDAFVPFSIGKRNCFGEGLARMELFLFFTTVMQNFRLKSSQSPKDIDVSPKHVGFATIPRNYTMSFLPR
As to conditions: bti-tn-5b1-4.

For another series, the target named is Melanocortin receptor 3 (Homo sapiens, UniProt P41968). It counts as cell membranes, Membrane. As to conditions: hek293.
Chain of Melanocortin receptor 3 (P41968 whole entry): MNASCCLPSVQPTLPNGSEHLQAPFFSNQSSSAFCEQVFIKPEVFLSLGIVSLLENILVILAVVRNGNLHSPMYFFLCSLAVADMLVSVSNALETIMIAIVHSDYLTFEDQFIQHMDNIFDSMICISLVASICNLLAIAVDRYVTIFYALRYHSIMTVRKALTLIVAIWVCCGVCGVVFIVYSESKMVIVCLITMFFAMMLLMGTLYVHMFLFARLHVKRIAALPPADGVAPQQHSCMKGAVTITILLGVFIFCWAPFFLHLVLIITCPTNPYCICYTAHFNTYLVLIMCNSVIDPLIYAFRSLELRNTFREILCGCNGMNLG
Further: in other assays of this panel Not Active means under 50% inhibition at 10 µM.

One may read the IC50 as the point on the concentration scale where inhibition reaches its midpoint. What is called Ki is a dissociation constant, usually derived from enzyme kinetics or from competition with a known ligand. In the case of `CCCCC(=O)N(Cc1ccc(-c2ccccc2-c2nnn[nH]2)cc1)[C@H](C(=O)O)C(C)C`, the IC50 result (in series [1] (cho-k1); on Adenosine receptor A1 (cho); in series [2]; against Substance-K receptor (cho); on Cytochrome P450 2A6; at Melanocortin receptor 3) was “Not Active” each time. Also, the inhibition constant Ki result on Cytochrome P450 2A6 was “Not Active”.

As for `O=C(O)COc1ccc(C(=O)c2cccs2)c(Cl)c1Cl`, the 50% inhibitory concentration (IC50) result (in series [1] (cho-k1); at Adenosine receptor A1 (cho); in series [2]; against Substance-K receptor (cho); against Cytochrome P450 2A6; at Melanocortin receptor 3) was “Not Active” each time. In addition, at Cytochrome P450 2A6, the Ki result is listed as “Not Active”.

As for `CN1[C@@H]2CC[C@H]1C[C@@H](OC(c1ccccc1)c1ccccc1)C2` [BENZTROPINE], the IC50 entry (in series [1] (cho-k1); against Adenosine receptor A1 (cho); in series [2]; against Substance-K receptor (cho); on Cytochrome P450 2A6; against Melanocortin receptor 3) was “Not Active” throughout. Further, the Ki result at Cytochrome P450 2A6 was “Not Active”.

For `C[C@@](Cc1ccc(O)c(O)c1)(NN)C(=O)O.O` [CARBIDOPA], the half-maximal inhibitory concentration (IC50) entry (in series [1] (cho-k1); on Adenosine receptor A1 (cho); in series [2]; against Substance-K receptor (cho); on Cytochrome P450 2A6; on Melanocortin receptor 3) was “Not Active” each time. The Ki entry at Cytochrome P450 2A6 was “Not Active”.

`CN1CCN(C2=Nc3cc(Cl)ccc3Nc3ccccc32)CC1` [CLOZAPINE]: the IC50 entry (in series [1] (cho-k1); against Adenosine receptor A1 (cho); in series [2]; against Substance-K receptor (cho); on Cytochrome P450 2A6; at Melanocortin receptor 3) was “Not Active” in each case. The Ki entry on Cytochrome P450 2A6 is listed as “Not Active”.

For `CC(C)NC[C@@H](O)COc1cccc2ccccc12` [DEXPROPRANOLOL], the IC50 result (in series [1] (cho-k1); on Adenosine receptor A1 (cho); in series [2]; at Substance-K receptor (cho); against Cytochrome P450 2A6; against Melanocortin receptor 3) was “Not Active” in each case. Also, the Ki result at Cytochrome P450 2A6 is on record as “Not Active”.

In the case of `CC(C)NC[C@H](O)COc1cccc2ccccc12` [LEVOPROPRANOLOL], the IC50 result (in series [1] (cho-k1); on Adenosine receptor A1 (cho); in series [2]; on Substance-K receptor (cho); on Cytochrome P450 2A6; at Melanocortin receptor 3) was “Not Active” in each case. Also, the Ki entry at Cytochrome P450 2A6 was “Not Active”.

`O=C(O)CCCCC1CCSS1` (stereo not drawn) [LIPOIC ACID, ALPHA]: the IC50 result (in series [1] (cho-k1); on Adenosine receptor A1 (cho); in series [2]; on Substance-K receptor (cho); at Cytochrome P450 2A6; at Melanocortin receptor 3) was “Not Active” in each case. On Cytochrome P450 2A6, the inhibition constant (Ki) entry is given as “Not Active”.

For `CN(C)C(=O)C(CCN1CCC(O)(c2ccc(Cl)cc2)CC1)(c1ccccc1)c1ccccc1` [LOPERAMIDE], the IC50 result (in series [1] (cho-k1); on Adenosine receptor A1 (cho); in series [2]; on Substance-K receptor (cho); on Cytochrome P450 2A6; against Melanocortin receptor 3) was “Not Active” in each case. The Ki entry on Cytochrome P450 2A6 is listed as “Not Active”.

As for `Clc1ccc(COC(Cn2ccnc2)c2ccc(Cl)cc2Cl)c(Cl)c1` (stereo not given) [MICONAZOLE], the concentration for half-maximal inhibition (IC50) in series [1] (read-out: IC50) was 24 µM; in series [2] it was “Not Active”; at Substance-K receptor (read-out: IC50), 4.84 µM; at Cytochrome P450 2A6 it was “Not Active”. Besides, the inhibition constant (Ki) in series [1] (read-out: Ki) is 7.78 µM; on Substance-K receptor (read-out: Ki), 1.61 µM; on Cytochrome P450 2A6 it was “Not Active”.

On to `Oc1ccc2c3c1O[C@H]1[C@@H](O)CC[C@@]4(O)[C@@H](C2)N(CC2CCC2)CC[C@]314` [NALBUPHINE], for which the IC50 entry (in series [1] (cho-k1); against Adenosine receptor A1 (cho); in series [2]; on Substance-K receptor (cho); against Melanocortin receptor 3) was “Not Active” each time.

For `C[C@]12C=CC(=O)C=C1CC[C@@H]1[C@@H]2C(=O)C[C@@]2(C)[C@H]1CC[C@]2(O)C(=O)CO` [PREDNISONE], the IC50 entry (in series [1] (cho-k1); against Adenosine receptor A1 (cho); in series [2]; against Substance-K receptor (cho); on Melanocortin receptor 3) was “Not Active” in each case.

Consider `OCCOCCN1CCN(C2=Nc3ccccc3Sc3ccccc32)CC1` [QUETIAPINE], for which the IC50 entry (in series [1] (cho-k1); against Adenosine receptor A1 (cho); in series [2]; on Substance-K receptor (cho); against Cytochrome P450 2A6; against Melanocortin receptor 3) was “Not Active” throughout. In addition, at Cytochrome P450 2A6, the Ki result was “Not Active”.

For `COC(=O)[C@H]1[C@H]2C[C@@H]3c4[nH]c5cc(OC)ccc5c4CCN3C[C@H]2C[C@@H](OC(=O)c2cc(OC)c(OC)c(OC)c2)[C@@H]1OC` [RESERPINE], the IC50 result (in series [1] (cho-k1); at Adenosine receptor A1 (cho); in series [2]; on Substance-K receptor (cho); at Cytochrome P450 2A6; on Melanocortin receptor 3) was “Not Active” in each case. The Ki entry on Cytochrome P450 2A6 is given as “Not Active”.

For the molecule `O=C(O)c1ccccc1O` [SALICYLIC ACID], the half-maximal inhibitory concentration (IC50) entry (in series [1] (cho-k1); at Adenosine receptor A1 (cho); in series [2]; against Substance-K receptor (cho); on Cytochrome P450 2A6; at Melanocortin receptor 3) was “Not Active” each time. Besides, the Ki result at Cytochrome P450 2A6 was “Not Active”.

With `C[S+]([O-])c1ccc(-c2nc(-c3ccncc3)c(-c3ccc(F)cc3)[nH]2)cc1` (stereo not given) [SB-203580], the IC50 result was “Not Active” in series [1] (cho-k1); 2.95 µM on Adenosine receptor A1 (read-out: IC50); “Not Active” in series [2]; “Not Active” at Substance-K receptor (cho); “Not Active” at Cytochrome P450 2A6; “Not Active” at Melanocortin receptor 3. Besides, the inhibition constant (Ki) at Adenosine receptor A1 (read-out: Ki) is 1.72 µM; on Cytochrome P450 2A6, “Not Active”.

`CC1CCC(NC(=O)N(CCCl)N=O)CC1` (stereo not given) [SEMUSTINE]: the IC50 result (in series [1] (cho-k1); at Adenosine receptor A1 (cho); in series [2]; against Substance-K receptor (cho); on Cytochrome P450 2A6; against Melanocortin receptor 3) was “Not Active” each time. At Cytochrome P450 2A6, the Ki entry is “Not Active”.

With `O=C1C[C@@H]2OCC=C3CN4CC[C@]56c7ccccc7N1[C@H]5[C@H]2[C@H]3C[C@H]46` [STRYCHNINE], the IC50 entry (in series [1] (cho-k1); against Adenosine receptor A1 (cho); in series [2]; on Substance-K receptor (cho); at Cytochrome P450 2A6; against Melanocortin receptor 3) was “Not Active” each time. On Cytochrome P450 2A6, the Ki result was “Not Active”.

For the molecule `C[N+](C)(C)CCOC(=O)CCC(=O)OCC[N+](C)(C)C.[Cl-].[Cl-]` [SUCCINYLCHOLINE CHLORIDE], the concentration for half-maximal inhibition (IC50) entry (in series [1] (cho-k1); against Adenosine receptor A1 (cho); in series [2]; against Substance-K receptor (cho); at Cytochrome P450 2A6; at Melanocortin receptor 3) was “Not Active” each time. For the same molecule, on Cytochrome P450 2A6, the Ki result is reported as “Not Active”.
